Active and inactive are the calls of the source.
Experiments:
[1] = target: T1, Galanin receptor type 3 (Homo sapiens, UniProt O60755); experiment: Fluorescence-based cell-based primary high throughput dose response assay to identify antagonists of the Galanin Receptor 3 (GalR3).; format: functional
T1 sequence (O60755 whole entry): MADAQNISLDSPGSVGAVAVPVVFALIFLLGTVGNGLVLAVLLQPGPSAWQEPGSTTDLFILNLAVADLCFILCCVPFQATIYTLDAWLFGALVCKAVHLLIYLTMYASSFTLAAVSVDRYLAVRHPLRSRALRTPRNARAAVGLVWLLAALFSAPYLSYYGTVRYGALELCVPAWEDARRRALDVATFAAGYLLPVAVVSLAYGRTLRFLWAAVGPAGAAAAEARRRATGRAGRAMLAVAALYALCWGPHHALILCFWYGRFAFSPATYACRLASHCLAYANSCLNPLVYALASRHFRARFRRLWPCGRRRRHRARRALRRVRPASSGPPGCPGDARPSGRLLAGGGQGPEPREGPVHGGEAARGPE

[2] = cells; format: functional, cell-based; conditions: HEK-CNG
[3] = system: INS1; experiment: INS-1E survival protection against cytokine death – cell-based, luminescence, retest, dose response (AID 449756); format: functional; conditions: Rattus norvegicus;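 also: cell death triggered by IL-1 beta plus TNF-alpha plus IFN-gamma mixture; protective hits raise ATP signal compared with cytokine alone wells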
[4] = HGIII-sPLA2 enzyme inhibition potency – biochemical, QFRET, IC50, dose response (AID 743457);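 also: green fluorescence rise as the enzyme cleaves BODIPY PC-A2 in liposomes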
[5] = target: T2, fMet-Leu-Phe receptor (Homo sapiens, UniProt P21462); experiment: formyl peptide receptor binders – dose response (AID 519); format: functional
T2 sequence (P21462 whole entry): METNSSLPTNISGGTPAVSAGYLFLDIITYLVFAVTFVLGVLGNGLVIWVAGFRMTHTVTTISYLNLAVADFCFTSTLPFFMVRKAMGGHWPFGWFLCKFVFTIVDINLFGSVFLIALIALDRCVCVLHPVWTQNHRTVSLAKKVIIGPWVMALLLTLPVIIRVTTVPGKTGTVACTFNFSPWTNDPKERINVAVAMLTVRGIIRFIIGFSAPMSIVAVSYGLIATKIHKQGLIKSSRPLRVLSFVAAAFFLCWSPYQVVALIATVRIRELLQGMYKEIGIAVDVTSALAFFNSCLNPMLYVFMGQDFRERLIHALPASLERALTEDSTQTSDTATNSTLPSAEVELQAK

[6] = target: Peroxisome proliferator-activated receptor gamma/Nuclear receptor coactivator 1 (Homo sapiens, UniProt P37231); experiment: (§1) TR-FRET dose response biochemical High Throughput Screening assay for agonists of the steroid receptor coactivator 1 (SRC-1) recruitment by the peroxisome proliferator-activated receptor gamma (PPAR gamma): non-selective agonists. [Related pubchem assays (depositor defined):AID1300, AID1808, AID504735, AID631]; format: protein assay
Sequence of Peroxisome proliferator-activated receptor gamma/Nuclear receptor coactivator 1 (P37231 whole entry): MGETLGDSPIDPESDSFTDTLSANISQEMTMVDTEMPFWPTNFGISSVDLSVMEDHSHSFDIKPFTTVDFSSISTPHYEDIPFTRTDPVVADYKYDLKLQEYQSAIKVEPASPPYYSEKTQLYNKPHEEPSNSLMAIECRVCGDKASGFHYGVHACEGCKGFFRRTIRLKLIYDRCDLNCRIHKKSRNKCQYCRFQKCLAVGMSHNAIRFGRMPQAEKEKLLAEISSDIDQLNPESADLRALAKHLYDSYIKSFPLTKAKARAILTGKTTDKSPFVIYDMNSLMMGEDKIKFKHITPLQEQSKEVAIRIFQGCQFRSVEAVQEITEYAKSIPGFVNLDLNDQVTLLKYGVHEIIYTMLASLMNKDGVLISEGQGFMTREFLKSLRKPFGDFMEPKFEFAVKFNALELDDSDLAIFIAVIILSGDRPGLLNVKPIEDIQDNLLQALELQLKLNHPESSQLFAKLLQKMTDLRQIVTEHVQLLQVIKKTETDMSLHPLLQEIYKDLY
Sequence of Peroxisome proliferator-activated receptor gamma/Nuclear receptor coactivator 1 (Q15788 whole entry, further chain): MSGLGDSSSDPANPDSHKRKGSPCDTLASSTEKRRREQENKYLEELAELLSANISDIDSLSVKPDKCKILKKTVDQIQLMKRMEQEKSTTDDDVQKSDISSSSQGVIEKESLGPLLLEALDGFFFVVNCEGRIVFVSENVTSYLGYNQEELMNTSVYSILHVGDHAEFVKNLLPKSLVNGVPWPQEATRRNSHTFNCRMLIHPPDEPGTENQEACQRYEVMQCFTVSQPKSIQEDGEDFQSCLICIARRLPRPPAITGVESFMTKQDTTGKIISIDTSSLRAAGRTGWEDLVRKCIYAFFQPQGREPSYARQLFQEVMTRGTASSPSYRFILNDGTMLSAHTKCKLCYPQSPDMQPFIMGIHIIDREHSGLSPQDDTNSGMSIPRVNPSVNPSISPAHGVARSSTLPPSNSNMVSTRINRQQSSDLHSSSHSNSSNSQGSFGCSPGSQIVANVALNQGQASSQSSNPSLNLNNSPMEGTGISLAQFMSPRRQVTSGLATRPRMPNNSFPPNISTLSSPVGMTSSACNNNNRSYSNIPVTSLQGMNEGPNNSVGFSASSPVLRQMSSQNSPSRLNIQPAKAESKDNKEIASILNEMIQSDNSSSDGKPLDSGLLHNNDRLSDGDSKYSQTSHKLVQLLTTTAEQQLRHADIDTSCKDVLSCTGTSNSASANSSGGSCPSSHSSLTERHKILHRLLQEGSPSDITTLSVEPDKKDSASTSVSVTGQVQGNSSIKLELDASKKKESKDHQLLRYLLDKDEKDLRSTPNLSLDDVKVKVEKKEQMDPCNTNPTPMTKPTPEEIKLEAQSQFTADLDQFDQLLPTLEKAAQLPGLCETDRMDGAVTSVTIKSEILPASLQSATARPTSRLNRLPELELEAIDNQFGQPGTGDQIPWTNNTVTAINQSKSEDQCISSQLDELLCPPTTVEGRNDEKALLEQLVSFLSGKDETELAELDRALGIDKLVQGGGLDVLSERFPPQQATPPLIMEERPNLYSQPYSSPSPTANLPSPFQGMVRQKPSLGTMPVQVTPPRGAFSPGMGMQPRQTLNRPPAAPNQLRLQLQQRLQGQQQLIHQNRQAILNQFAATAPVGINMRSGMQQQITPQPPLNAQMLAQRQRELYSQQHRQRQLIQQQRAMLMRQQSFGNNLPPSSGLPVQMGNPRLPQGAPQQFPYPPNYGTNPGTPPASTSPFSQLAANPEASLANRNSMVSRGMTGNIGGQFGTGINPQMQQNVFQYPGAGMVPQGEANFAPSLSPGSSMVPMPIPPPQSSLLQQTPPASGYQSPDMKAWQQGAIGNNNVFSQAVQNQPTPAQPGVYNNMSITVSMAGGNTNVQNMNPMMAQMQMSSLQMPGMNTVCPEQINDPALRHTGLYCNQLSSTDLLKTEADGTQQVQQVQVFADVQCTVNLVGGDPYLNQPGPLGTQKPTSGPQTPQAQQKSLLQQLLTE

[7] = target: Peroxisome proliferator-activated receptor gamma/Nuclear receptor coactivator 3 (Homo sapiens, UniProt P37231); experiment: as §1, with “3 (SRC-3)” for “1 (SRC-1)”, “assays: 1301 (Confirmation screen.), 1048 (Primary screen.)]” for “assays (depositor defined):AID1300, AID1808, AID504735, AID631]”; format: functional
Sequence of Peroxisome proliferator-activated receptor gamma/Nuclear receptor coactivator 3 (P37231 whole entry): as the sequence (P37231 whole entry) above
Sequence of Peroxisome proliferator-activated receptor gamma/Nuclear receptor coactivator 3 (Q9Y6Q9 whole entry, further chain): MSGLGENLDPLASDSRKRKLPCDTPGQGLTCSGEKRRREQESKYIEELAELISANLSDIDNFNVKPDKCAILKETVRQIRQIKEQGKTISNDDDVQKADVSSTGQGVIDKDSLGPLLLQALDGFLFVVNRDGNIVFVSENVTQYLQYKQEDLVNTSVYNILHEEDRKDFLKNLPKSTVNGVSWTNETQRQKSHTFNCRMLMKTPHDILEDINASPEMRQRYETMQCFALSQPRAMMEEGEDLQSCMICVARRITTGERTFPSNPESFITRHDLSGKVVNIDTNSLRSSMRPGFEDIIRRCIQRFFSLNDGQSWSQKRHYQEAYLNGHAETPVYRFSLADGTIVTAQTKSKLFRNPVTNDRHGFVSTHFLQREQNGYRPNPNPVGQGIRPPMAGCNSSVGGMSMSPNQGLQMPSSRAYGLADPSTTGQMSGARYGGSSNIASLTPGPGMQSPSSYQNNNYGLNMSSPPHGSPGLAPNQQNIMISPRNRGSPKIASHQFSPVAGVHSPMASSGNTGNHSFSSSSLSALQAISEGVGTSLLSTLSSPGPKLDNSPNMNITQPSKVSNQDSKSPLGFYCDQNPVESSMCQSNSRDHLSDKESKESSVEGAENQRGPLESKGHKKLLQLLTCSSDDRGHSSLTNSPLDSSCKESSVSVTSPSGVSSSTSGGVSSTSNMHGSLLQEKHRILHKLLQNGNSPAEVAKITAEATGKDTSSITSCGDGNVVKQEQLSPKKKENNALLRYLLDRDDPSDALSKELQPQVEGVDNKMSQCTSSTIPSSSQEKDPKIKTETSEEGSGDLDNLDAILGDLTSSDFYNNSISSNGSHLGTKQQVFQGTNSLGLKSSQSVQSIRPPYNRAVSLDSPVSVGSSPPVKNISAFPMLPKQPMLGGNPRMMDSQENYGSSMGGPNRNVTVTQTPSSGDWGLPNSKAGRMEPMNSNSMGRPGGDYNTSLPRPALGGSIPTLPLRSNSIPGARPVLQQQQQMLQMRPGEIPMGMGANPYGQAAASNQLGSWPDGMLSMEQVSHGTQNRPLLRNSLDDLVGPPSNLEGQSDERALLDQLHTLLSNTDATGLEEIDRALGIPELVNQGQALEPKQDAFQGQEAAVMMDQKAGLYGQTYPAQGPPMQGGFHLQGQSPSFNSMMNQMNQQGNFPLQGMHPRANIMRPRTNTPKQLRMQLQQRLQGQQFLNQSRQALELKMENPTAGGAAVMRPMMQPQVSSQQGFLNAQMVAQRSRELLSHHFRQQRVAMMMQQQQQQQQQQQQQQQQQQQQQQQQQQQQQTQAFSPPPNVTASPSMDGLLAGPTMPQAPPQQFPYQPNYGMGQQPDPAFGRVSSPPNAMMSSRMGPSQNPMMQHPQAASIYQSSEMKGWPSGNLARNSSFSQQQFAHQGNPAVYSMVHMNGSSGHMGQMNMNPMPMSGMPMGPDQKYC

[8] = target: Peroxisome proliferator-activated receptor gamma/Nuclear receptor coactivator 2 (Homo sapiens, UniProt P37231); experiment: TR-FRET dose response biochemical High Throughput Screening assay for agonists of the steroid receptor coactivator 2 (SRC-2) recruitment by the peroxisome proliferator-activated receptor gamma (PPAR gamma): non-selective agonists. [Related pubchem assays: 1297, 1032 ]; format: functional
[9] = target: T3, Replicative DNA helicase DnaB (Mycobacterium tuberculosis, UniProt P9WMR3); experiment: DnaB intein splicing inhibitors, dose response, biochemical, cell-free fluorescence (AID 449749); format: functional
T3 sequence (P9WMR3 whole entry): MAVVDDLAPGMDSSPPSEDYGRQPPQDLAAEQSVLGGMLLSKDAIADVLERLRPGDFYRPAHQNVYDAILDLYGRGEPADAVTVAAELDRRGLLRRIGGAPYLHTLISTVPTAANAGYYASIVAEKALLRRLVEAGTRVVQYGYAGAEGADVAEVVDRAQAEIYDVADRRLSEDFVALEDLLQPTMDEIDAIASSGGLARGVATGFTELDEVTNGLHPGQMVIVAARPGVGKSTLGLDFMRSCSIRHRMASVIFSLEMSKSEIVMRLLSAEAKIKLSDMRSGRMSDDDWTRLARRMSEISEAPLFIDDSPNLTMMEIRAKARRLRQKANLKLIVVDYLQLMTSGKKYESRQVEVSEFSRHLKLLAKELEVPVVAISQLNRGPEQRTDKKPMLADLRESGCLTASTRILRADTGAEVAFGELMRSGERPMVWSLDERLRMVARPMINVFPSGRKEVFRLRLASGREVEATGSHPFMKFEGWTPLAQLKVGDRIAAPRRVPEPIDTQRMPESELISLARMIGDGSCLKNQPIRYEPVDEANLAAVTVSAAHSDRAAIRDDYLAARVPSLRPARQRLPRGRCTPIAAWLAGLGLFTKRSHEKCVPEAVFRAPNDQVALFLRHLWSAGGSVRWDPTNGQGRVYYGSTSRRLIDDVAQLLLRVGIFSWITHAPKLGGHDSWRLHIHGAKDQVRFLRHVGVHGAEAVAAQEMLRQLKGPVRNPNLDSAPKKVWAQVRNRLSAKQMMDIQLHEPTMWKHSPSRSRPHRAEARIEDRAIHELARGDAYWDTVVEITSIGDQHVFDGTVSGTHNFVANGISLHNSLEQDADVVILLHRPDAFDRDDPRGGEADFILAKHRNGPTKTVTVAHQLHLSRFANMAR

[10] = target: T4, Protein RecA (Mycobacterium tuberculosis, UniProt P9WHJ3); experiment: Fluorescence Cell-Free Homogeneous Dose Retest to Identify Inhibitors of RecA-Intein Splicing Activity. [Related pubchem assays (depositor defined):AID2097, AID2223, AID489010, AID492950]; format: functional
T4 sequence (P9WHJ3 whole entry): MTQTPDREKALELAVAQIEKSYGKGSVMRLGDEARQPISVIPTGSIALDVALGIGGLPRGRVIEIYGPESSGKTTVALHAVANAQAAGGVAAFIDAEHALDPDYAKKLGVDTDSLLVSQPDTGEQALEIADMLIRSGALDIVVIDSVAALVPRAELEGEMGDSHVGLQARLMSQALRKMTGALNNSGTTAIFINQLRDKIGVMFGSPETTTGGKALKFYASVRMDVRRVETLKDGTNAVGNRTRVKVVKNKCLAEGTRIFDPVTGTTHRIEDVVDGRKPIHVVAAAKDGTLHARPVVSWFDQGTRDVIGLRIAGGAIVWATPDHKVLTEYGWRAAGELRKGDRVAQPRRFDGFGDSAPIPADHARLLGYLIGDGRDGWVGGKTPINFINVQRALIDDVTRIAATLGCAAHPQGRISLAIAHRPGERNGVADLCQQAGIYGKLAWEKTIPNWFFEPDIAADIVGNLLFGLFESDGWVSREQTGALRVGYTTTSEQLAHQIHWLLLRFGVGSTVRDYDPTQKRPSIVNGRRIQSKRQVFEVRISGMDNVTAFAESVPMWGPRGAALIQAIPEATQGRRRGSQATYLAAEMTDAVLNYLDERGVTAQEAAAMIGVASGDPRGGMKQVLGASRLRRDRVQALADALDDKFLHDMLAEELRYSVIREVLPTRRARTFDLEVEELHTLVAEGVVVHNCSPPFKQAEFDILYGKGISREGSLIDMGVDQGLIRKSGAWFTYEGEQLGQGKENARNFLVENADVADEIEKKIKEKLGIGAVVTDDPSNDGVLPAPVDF

[11] = system: HEK293; experiment: EBV LMP1 TES2 canonical NF-kB signalling blockers – cell-based, HEK293, luciferase, cherry-pick, dose response (AID 588343); format: functional; conditions: Homo sapiens
[12] = A549 cell cytotoxicity, dose response, cytotoxicity control, plate reader, cherry-pick, antagonist series (AID 743412); format: functional, cell-based
[13] = toxicity toward HepG2 liver cells – cell-based, plate reader, cherry-pick, antagonist series, cytotoxicity control, dose response (AID 743416); format: functional
[14] = blockers of bursicon-stimulated LGR2 cAMP reporter – cell-based, HEK293, CRE-luciferase reporter, cherry pick, set 2, dose response (AID 743343); format: functional;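 also: transfected cells were stimulated with diluted bursicon conditioned medium after compound addition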
[15] = blockade of melanocortin 4 receptor signaling – cell-based, plate reader, cherry pick, counter-screen for LGR2 antagonist project, dose response (AID 743444); format: functional;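 also: transfected HEK 293 cells stimulated with alpha-MSH peptide; potency of inhibitors of the alpha-MSH evoked signal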

What does the source list for COCCn1c(SCCCC(=O)c2ccc(Br)cc2)nnc1-c1ccncc1?
IC50 [1]: 5.94 µM (active); EC50 [2]: > 29.9 µM (inactive)

Which AC50 [3] does the source give for Cc1ccc(C(=O)NC(=S)/C=C2\N(C)c3ccccc3C2(C)C)cc1 here?
Its AC50 is 2.33 µM (active).

And the IC50 [4]?
Its IC50 is > 122 µM (inactive).

Which Ki [5] does the source give for COc1cc(C2C(C(=O)c3ccc(C)o3)=C(O)C(=O)N2Cc2cccnc2)ccc1O (stereo not given) here?
Its Ki is > 66.7 µM (inactive).

Which EC50 [6] does the source give for COc1cccc(C2C(C(=O)c3ccc(OC)c(OC)c3)=C(O)C(=O)N2c2cc(C)on2)c1 (stereo not given) here?
The EC50 was > 79.4 µM (inactive).

And the EC50 [7]?
The EC50 was > 79.4 µM (not active).

What about the EC50 [8] of the same molecule?
The EC50 was > 79.4 µM (not active).

What about the Ki [5] of the same molecule?
The Ki was > 66.7 µM (inactive).

For Cc1onc(-c2ccccc2)c1-c1nc2ccccc2c(=O)o1, which AC50 [9] is on record?
The AC50 was 1.31 µM (active).

And the EC50 [10]?
The EC50 was 1.11 µM (active).

And the IC50 [1]?
The IC50 was > 29.9 µM (inactive).

And the EC50 [2]?
The EC50 was > 29.9 µM (inactive).

Which results are given for CCOC(=O)CCN(c1ccccc1)S(=O)(=O)c1ccc(-c2ccc(O)nn2)s1?
IC50 [1]: 4.41 µM (active); EC50 [2]: > 29.9 µM (inactive)

For Cc1ccc(C(=O)NCCc2cccs2)cc1, which AC50 [11] is on record?
The AC50 was 2.28 µM (active).

And the AC50 [12]?
The AC50 was > 52 µM (inactive).

And the AC50 [13]?
Its AC50 is > 52 µM (inactive).

And the AC50 [14]?
The AC50 was 3.13 µM (active).

And the AC50 [15]?
Its AC50 is 3.74 µM (active).
